Reference: PubChem BioAssay (NCI)
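Method: 48-hour compound exposure of cells in 96-well plates, five concentrations, linear interpolation of endpoints. GI50: concentration for 50% inhibition of growth. TGI denotes the concentration required for complete inhibition of growth.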

What was measured:
Experiment in all cases: inhibition of tumour cell growth, NCI panel, 48 h
786-0 renal = test system: 786-0 renal
A498 renal = test system: A498 renal
A549 NSCLC = test system: A549 NSCLC
ACHN renal = test system: ACHN renal
BT-549 breast = test system: BT-549 breast
CAKI-1 renal = test system: CAKI-1 renal
CCRF-CEM leukemia = test system: CCRF-CEM leukemia
COLO 205 colon = test system: COLO 205 colon
DU-145 prostate = test system: DU-145 prostate
EKVX NSCLC = test system: EKVX NSCLC
HCC-2998 colon = test system: HCC-2998 colon
HCT-116 colon = test system: HCT-116 colon
HCT-15 colon = test system: HCT-15 colon
HL-60(TB) leukemia = test system: HL-60(TB) leukemia
HOP-62 NSCLC = test system: HOP-62 NSCLC
HOP-92 NSCLC = test system: HOP-92 NSCLC
HS 578T breast = test system: HS 578T breast
HT29 colon = test system: HT29 colon
IGROV1 ovarian = test system: IGROV1 ovarian
K-562 leukemia = test system: K-562 leukemia
KM12 colon = test system: KM12 colon
LOX IMVI melanoma = test system: LOX IMVI melanoma
M14 melanoma = test system: M14 melanoma
MALME-3M melanoma = test system: MALME-3M melanoma
MCF7 breast = test system: MCF7 breast
MDA-MB-231 breast = test system: MDA-MB-231 breast
MDA-MB-435 = test system: MDA-MB-435
MOLT-4 leukemia = test system: MOLT-4 leukemia
NCI-H226 lung = test system: NCI-H226 lung
NCI-H23 lung = test system: NCI-H23 lung
NCI-H460 lung = test system: NCI-H460 lung
NCI/ADR-RES ovarian = test system: NCI/ADR-RES ovarian
OVCAR-3 ovarian = test system: OVCAR-3 ovarian
OVCAR-4 ovarian = test system: OVCAR-4 ovarian
OVCAR-5 ovarian = test system: OVCAR-5 ovarian
OVCAR-8 ovarian = test system: OVCAR-8 ovarian
PC-3 prostate = test system: PC-3 prostate
RPMI-8226 leukemia = test system: RPMI-8226 leukemia
RXF 393 renal = test system: RXF 393 renal
SF-268 CNS = test system: SF-268 CNS
SF-295 CNS = test system: SF-295 CNS
SF-539 CNS = test system: SF-539 CNS
SK-MEL-2 melanoma = test system: SK-MEL-2 melanoma
SK-MEL-28 melanoma = test system: SK-MEL-28 melanoma
SK-MEL-5 melanoma = test system: SK-MEL-5 melanoma
SK-OV-3 ovarian = test system: SK-OV-3 ovarian
SN12C renal = test system: SN12C renal
SNB-19 CNS = test system: SNB-19 CNS
SNB-75 CNS = test system: SNB-75 CNS
SR leukemia = test system: SR leukemia
SW-620 colon = test system: SW-620 colon
T-47D breast = test system: T-47D breast
TK-10 renal = test system: TK-10 renal
U251 CNS = test system: U251 CNS
UACC-257 melanoma = test system: UACC-257 melanoma
UACC-62 melanoma = test system: UACC-62 melanoma
UO-31 renal = test system: UO-31 renal

## COc1ccc(-c2[nH]nc(N)c2-c2cc(OC)c3c(c2)OCO3)cc1
786-0 renal
  GI50: 7.82 µM
  TGI: > 100 µM
A498 renal
  GI50: 1880 nM
  TGI: 6.75 µM
A549 NSCLC
  GI50: 4.73 µM
  TGI: > 100 µM
ACHN renal
  GI50: 6.88 µM
  TGI: > 100 µM
BT-549 breast
  GI50: 7.71 µM
  TGI: > 100 µM
CAKI-1 renal
  GI50: 3.98 µM
  TGI: > 100 µM
CCRF-CEM leukemia
  GI50: 3.47 µM
  TGI: 38.8 µM
COLO 205 colon
  GI50: 4.76 µM
  TGI: 20 µM
DU-145 prostate
  GI50: 5.6 µM
  TGI: > 100 µM
EKVX NSCLC
  GI50: 9.09 µM
  TGI: > 100 µM
HCC-2998 colon
  GI50: 5.97 µM
  TGI: 31.4 µM
HCT-116 colon
  GI50: 2710 nM
  TGI: > 100 µM
HCT-15 colon
  GI50: 3.69 µM
  TGI: > 100 µM
HL-60(TB) leukemia
  GI50: 2890 nM
  TGI: 10.3 µM
HOP-62 NSCLC
  GI50: 5.65 µM
  TGI: > 100 µM
HOP-92 NSCLC
  GI50: 3.54 µM
  TGI: 46.8 µM
HS 578T breast
  GI50: 2010 nM
  TGI: 5.21 µM
HT29 colon
  GI50: 3.65 µM
  TGI: 25.7 µM
IGROV1 ovarian
  GI50: 8.51 µM
  TGI: 70.5 µM
K-562 leukemia
  GI50: 1870 nM
  TGI: > 100 µM
KM12 colon
  GI50: 2350 nM
  TGI: 31.6 µM
LOX IMVI melanoma
  GI50: 4.86 µM
  TGI: > 100 µM
M14 melanoma
  GI50: 2550 nM
  TGI: 7.24 µM
MALME-3M melanoma
  GI50: 5.01 µM
  TGI: > 100 µM
MCF7 breast
  GI50: 3.83 µM
  TGI: > 100 µM
MDA-MB-231 breast
  GI50: 5.5 µM
  TGI: > 100 µM
MDA-MB-435
  GI50: 559 nM
  TGI: 2540 nM
MOLT-4 leukemia
  GI50: 3.73 µM
  TGI: 37.5 µM
NCI-H226 lung
  GI50: 8.36 µM
  TGI: > 100 µM
NCI-H23 lung
  GI50: 3.87 µM
  TGI: > 100 µM
NCI-H460 lung
  GI50: 3.38 µM
  TGI: > 100 µM
NCI/ADR-RES ovarian
  GI50: 2330 nM
  TGI: 8.48 µM
OVCAR-3 ovarian
  GI50: 2480 nM
  TGI: 6.05 µM
OVCAR-4 ovarian
  GI50: 12.9 µM
  TGI: > 100 µM
OVCAR-5 ovarian
  GI50: 16 µM
  TGI: > 100 µM
OVCAR-8 ovarian
  GI50: 4.44 µM
  TGI: > 100 µM
PC-3 prostate
  GI50: 14.3 µM
  TGI: > 100 µM
RPMI-8226 leukemia
  GI50: 3.8 µM
  TGI: 52.3 µM
RXF 393 renal
  GI50: 3.63 µM
  TGI: 16.1 µM
SF-268 CNS
  GI50: 4.74 µM
  TGI: > 100 µM
SF-295 CNS
  GI50: 3.92 µM
  TGI: 32.4 µM
SF-539 CNS
  GI50: 12.8 µM
  TGI: 48.2 µM
SK-MEL-2 melanoma
  GI50: 2810 nM
  TGI: 6.42 µM
SK-MEL-28 melanoma
  GI50: 6.3 µM
  TGI: > 100 µM
SK-MEL-5 melanoma
  GI50: 2850 nM
  TGI: 8.97 µM
SK-OV-3 ovarian
  GI50: 5.74 µM
  TGI: > 100 µM
SN12C renal
  GI50: 5.01 µM
  TGI: > 100 µM
SNB-19 CNS
  GI50: 5.23 µM
  TGI: > 100 µM
SNB-75 CNS
  GI50: 3.25 µM
  TGI: > 100 µM
SR leukemia
  GI50: 1970 nM
  TGI: 18.1 µM
SW-620 colon
  GI50: 3 µM
  TGI: > 100 µM
T-47D breast
  GI50: 6.52 µM
  TGI: > 100 µM
TK-10 renal
  GI50: 8.42 µM
  TGI: 60.1 µM
U251 CNS
  GI50: 4.29 µM
  TGI: > 100 µM
UACC-257 melanoma
  GI50: 5.77 µM
  TGI: > 100 µM
UACC-62 melanoma
  GI50: 4.13 µM
  TGI: > 100 µM
UO-31 renal
  GI50: 4.35 µM
  TGI: 69.7 µM
